Reference: patent US20260217767A1, “NOVEL A4B7 THIOETHER PEPTIDE DIMER ANTAGONISTS” (Protagonist Therapeutics, Inc., priority 2014, published 2026)
Where a SMILES comes first, the peptide text is derived from it.

Molecular target: T1, RPMI 8866 cells (Homo sapiens, UniProt P13612+P26010)
T1 sequence (P13612 34-1032): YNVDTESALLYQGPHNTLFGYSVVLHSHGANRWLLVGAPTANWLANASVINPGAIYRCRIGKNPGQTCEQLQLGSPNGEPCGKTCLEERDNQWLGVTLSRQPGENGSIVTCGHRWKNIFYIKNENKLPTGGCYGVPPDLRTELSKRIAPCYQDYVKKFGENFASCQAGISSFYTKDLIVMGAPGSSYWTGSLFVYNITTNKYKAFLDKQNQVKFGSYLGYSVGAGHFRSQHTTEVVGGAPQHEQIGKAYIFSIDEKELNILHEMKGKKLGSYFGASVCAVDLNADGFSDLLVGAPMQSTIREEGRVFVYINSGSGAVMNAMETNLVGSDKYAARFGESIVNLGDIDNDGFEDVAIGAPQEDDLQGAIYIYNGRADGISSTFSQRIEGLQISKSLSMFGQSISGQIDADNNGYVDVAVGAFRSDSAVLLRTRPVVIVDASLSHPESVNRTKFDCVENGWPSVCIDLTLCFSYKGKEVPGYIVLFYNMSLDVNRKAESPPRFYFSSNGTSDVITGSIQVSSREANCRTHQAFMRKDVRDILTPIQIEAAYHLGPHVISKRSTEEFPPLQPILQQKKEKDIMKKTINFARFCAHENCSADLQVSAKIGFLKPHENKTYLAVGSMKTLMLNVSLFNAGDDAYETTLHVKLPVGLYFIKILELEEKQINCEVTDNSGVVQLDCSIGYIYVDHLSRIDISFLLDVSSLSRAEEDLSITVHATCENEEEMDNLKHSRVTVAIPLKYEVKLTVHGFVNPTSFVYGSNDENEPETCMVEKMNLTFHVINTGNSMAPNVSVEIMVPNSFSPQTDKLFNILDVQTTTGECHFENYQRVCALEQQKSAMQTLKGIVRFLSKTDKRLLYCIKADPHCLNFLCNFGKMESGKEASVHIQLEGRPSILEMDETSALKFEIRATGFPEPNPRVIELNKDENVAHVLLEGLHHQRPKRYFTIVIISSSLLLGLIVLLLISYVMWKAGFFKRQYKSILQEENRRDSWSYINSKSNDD
T1 sequence (P26010 20-798): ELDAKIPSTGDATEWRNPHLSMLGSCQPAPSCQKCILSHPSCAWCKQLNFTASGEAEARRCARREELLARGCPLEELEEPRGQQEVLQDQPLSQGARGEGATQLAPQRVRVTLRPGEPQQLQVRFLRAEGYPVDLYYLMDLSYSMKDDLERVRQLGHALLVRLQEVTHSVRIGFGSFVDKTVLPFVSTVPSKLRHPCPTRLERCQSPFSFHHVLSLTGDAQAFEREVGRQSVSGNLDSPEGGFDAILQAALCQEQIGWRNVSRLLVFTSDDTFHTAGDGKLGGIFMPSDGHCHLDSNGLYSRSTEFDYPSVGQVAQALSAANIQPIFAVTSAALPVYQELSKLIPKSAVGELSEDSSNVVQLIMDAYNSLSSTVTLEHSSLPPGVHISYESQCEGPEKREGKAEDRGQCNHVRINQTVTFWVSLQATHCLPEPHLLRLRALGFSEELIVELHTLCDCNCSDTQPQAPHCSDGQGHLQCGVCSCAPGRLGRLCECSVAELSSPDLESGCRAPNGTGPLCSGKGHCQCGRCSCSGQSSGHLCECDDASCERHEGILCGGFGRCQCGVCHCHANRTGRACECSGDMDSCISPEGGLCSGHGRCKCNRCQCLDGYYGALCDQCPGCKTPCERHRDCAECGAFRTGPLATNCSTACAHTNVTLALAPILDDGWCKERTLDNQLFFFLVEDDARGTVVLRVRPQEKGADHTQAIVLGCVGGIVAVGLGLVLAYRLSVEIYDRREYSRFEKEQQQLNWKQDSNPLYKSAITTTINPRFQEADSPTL
Test: α4β7-MAdCAM Cell Adhesion Assay
Assay type: cell-based
Conditions: thioether peptide dimers, Table 7; read-out: Cell-Adhesion A4B7
Description: α4β7-MAdCAM Cell Adhesion Assay
RPMI 8866 cells (Sigma #95041316) were cultured in RPMI 1640 HEPES medium (Invitrogen #22400-089) supplemented with 10% serum (Fetal Bovine Serum, Invitrogen #16140-071), 1 mM sodium pyruvate (Invitrogen #11360-070), 2 mM L-glutamine (Invitrogen #25030-081) and Penicillin-Streptomycin (Invitrogen #15140-122) at 100 units of penicillin and 100 μg of streptomycin per ml. The cells were washed two times in DMEM medium (ATCC #30-2002) supplemented with 0.1% BSA, 10 mM HEPES pH 7 and 1 mM MnCl2. The cells were re-suspended in supplemented DMEM medium at a density of 4×10^6 cells/ml.
A Nunc MaxiSorp plate was coated with rh MAdCAM-1/Fc Chimera (R&D #6065-MC) at 200 ng per well in 50 ul per well in 1×PBS and incubated at 4° C. overnight. The solution was then removed by shaking, blocked with 250 ul per well PBS containing 1% BSA, and incubated at 37° C. for 1 hr. The solution was removed by shaking. Peptides were diluted by serial dilution in a final volume of 50 ul per well (2× concentration). To each well, 50 ul of cells (200,000 cells) were added and the plate was incubated at 37° C., 5% CO2 for 30-45 min to allow cell adhesion. The wells were washed manually three times (100 ul per wash) with supplemented DMEM. After the final wash, 100 μl/well of supplemented DMEM and 10 ul/well of MTT reagent (ATTC cat #30-1010K) were added. The plate was incubated at 37° C., 5% CO2 for 2-3 hrs until a purple precipitate is visible. 100 ul of Detergent Reagent (ATTC cat #30-1010K) was added to each well. The plate was covered from the light, wrapped in Parafilm to prevent evaporation, and left overnight at room temperature in the dark. The plate was shaken for 5 min and the absorbance at 570 nm is measured. To calculate the dose response, the absorbance value of control wells not containing cells was subtracted from each test well.

Compound	IC50 [nM]
CC(C)C[C@@H]1NC(=O)[C@H]([C@@H](C)O)NC(=O)[C@H](CC(=O)O)NC(=O)[C@H](CO)NC(=O)[C@H](CCCNC(=N)N)N(C)C(=O)c2ccccc2CSC(C)(C)[C@@H](C(=O)N[C@@H](Cc2c[nH]c3ccccc23)C(=O)N[C@H](CCC(=O)O)C(=O)N[C@H](Cc2c[nH]cn2)C(=O)N[C@H](CCCCN)C(N)=O)NC1=O [compound 199] (HELM PEPTIDE1{[meR].S.D.T.L.[Pen].W.[dE].[dH].[dK].[am]}|CHEM1{[O=C(c1ccccc1C[*:2])[*:1]]}$PEPTIDE1,CHEM1,1:R1-1:R1|PEPTIDE1,CHEM1,6:R3-1:R2$$$V2.0)	< 25
CC(C)C[C@@H]1NC(=O)[C@H]([C@@H](C)O)NC(=O)[C@H](CC(=O)O)NC(=O)[C@H](CO)NC(=O)[C@H](CCCNC(=N)N)N(C)C(=O)C(C)SC(C)(C)[C@@H](C(=O)N[C@@H](Cc2c[nH]c3ccccc23)C(=O)N[C@H](CCCCN)C(N)=O)NC1=O (single isomer, unassigned) [compound 148]	> 1000
CC(C)C[C@@H]1NC(=O)[C@H]([C@@H](C)O)NC(=O)[C@H](CC(=O)O)NC(=O)[C@H](CO)NC(=O)[C@H](CCCNC(=N)N)N(C)C(=O)c2ccccc2CSC[C@@H](C(=O)N[C@H](Cc2ccccc2)C(=O)N[C@H](CCC(=O)O)C(=O)N[C@H](CCCCN)C(N)=O)NC1=O [compound 187] (HELM PEPTIDE1{[meR].S.D.T.L.C.[dF].[dE].[dK].[am]}|CHEM1{[O=C(c1ccccc1C[*:2])[*:1]]}$PEPTIDE1,CHEM1,1:R1-1:R1|PEPTIDE1,CHEM1,6:R3-1:R2$$$V2.0)	25 to 100
181 (RSDTLXWEK; not fully specified; CROSSLINK - N-term 2-Benzyl with a thioether bond between the N-term and the residue at position 6; MOD_RES 1 N-Methyl Arginine; SITE 6 D-Penicillamine; SITE 9 D-Lys; SITE 9 C-term NH2) [compound 181]	> 1000
CC(C)C[C@@H]1NC(=O)[C@H]([C@@H](C)O)NC(=O)[C@H](CC(=O)O)NC(=O)[C@H](CO)NC(=O)[C@H](CCCNC(=N)N)N(C)C(=O)c2ccccc2CSC(C)(C)[C@@H](C(=O)N[C@@H](Cc2c[nH]c3ccccc23)C(=O)N[C@H](CCC(=O)O)C(=O)N[C@H](Cc2ccc(O)cc2)C(=O)N[C@H](CCCCN)C(N)=O)NC1=O [compound 201] (HELM PEPTIDE1{[meR].S.D.T.L.[Pen].W.[dE].[dY].[dK].[am]}|CHEM1{[O=C(c1ccccc1C[*:2])[*:1]]}$PEPTIDE1,CHEM1,1:R1-1:R1|PEPTIDE1,CHEM1,6:R3-1:R2$$$V2.0)	< 25
CC(C)C[C@@H]1NC(=O)[C@H]([C@@H](C)O)NC(=O)[C@H](CC(=O)O)NC(=O)[C@H](CO)NC(=O)[C@H](CCCNC(=N)N)N(C)C(=O)c2ccccc2CSC(C)(C)[C@@H](C(=O)N[C@@H](Cc2c[nH]c3ccccc23)C(=O)N[C@H](CCC(=O)O)C(=O)N[C@H](CCCCN)C(N)=O)NC1=O [compound 212] (HELM PEPTIDE1{[meR].S.D.T.L.[Pen].W.[dE].[dK].[am]}|CHEM1{[O=C(c1ccccc1C[*:2])[*:1]]}$PEPTIDE1,CHEM1,1:R1-1:R1|PEPTIDE1,CHEM1,6:R3-1:R2$$$V2.0)	25 to 100
CC(C)C[C@@H]1NC(=O)[C@H]([C@@H](C)O)NC(=O)[C@H](CC(=O)O)NC(=O)[C@H](CO)NC(=O)[C@H](CCCNC(=N)N)N(C)C(=O)c2ccccc2CSC(C)(C)[C@@H](C(=O)N[C@@H](Cc2c[nH]c3ccccc23)C(=O)N[C@@H](Cc2ccc(-c3ccccc3)cc2)C(=O)N[C@H](CCCCN)C(N)=O)NC1=O [compound 202] (HELM PEPTIDE1{[meR].S.D.T.L.[Pen].W.[O=C([C@H](Cc1ccc(-c2ccccc2)cc1)N[*:1])[*:2]].[dK].[am]}|CHEM1{[O=C(c1ccccc1C[*:2])[*:1]]}$PEPTIDE1,CHEM1,1:R1-1:R1|PEPTIDE1,CHEM1,6:R3-1:R2$$$V2.0)	100 to 1000
221 (RSDTLCXK; not fully specified; CROSSLINK - N-term 2-Benzyl with a thioether bond between the N-term and the residue at position 6; MOD_RES 1 N-Methyl Arginine; SITE 7 (3S-)-1,2,3,4-tetrahydroisoquinoline-3-carboxylic acid; SITE 8 D-Lys; SITE 8 C-term OH) [compound 221]	25 to 100
CC(C)C[C@@H]1NC(=O)[C@H]([C@@H](C)O)NC(=O)[C@H](CC(=O)O)NC(=O)[C@H](CO)NC(=O)[C@H](CCCNC(=N)N)N(C)C(=O)c2ccccc2CSC(C)(C)[C@@H](C(=O)N[C@@H](Cc2c[nH]c3ccccc23)C(=O)N[C@H](CCC(=O)O)C(=O)N[C@H](CCC(=O)O)C(=O)N[C@H](CCCCN)C(N)=O)NC1=O [compound 200] (HELM PEPTIDE1{[meR].S.D.T.L.[Pen].W.[dE].[dE].[dK].[am]}|CHEM1{[O=C(c1ccccc1C[*:2])[*:1]]}$PEPTIDE1,CHEM1,1:R1-1:R1|PEPTIDE1,CHEM1,6:R3-1:R2$$$V2.0)	< 25
COC(=O)CC[C@H](NC(=O)[C@H](Cc1c[nH]c2ccccc12)NC(=O)[C@H]1NC(=O)[C@H](CC(C)C)NC(=O)[C@H]([C@@H](C)O)NC(=O)[C@H](CC(=O)O)NC(=O)[C@H](CO)NC(=O)[C@H](CCCNC(=N)N)N(C)C(=O)c2ccccc2CSC1(C)C)C(=O)N[C@H](CCCCN)C(N)=O [compound 210] (HELM PEPTIDE1{[meR].S.D.T.L.[Pen].W.E.[dK].[am]}|CHEM1{[CO[*:1]]}|CHEM2{[O=C(c1ccccc1C[*:2])[*:1]]}$PEPTIDE1,CHEM1,8:R3-1:R1|PEPTIDE1,CHEM2,1:R1-1:R1|PEPTIDE1,CHEM2,6:R3-1:R2$$$V2.0)	100 to 1000
CC(C)C[C@@H]1NC(=O)[C@H]([C@@H](C)O)NC(=O)[C@H](CC(=O)O)NC(=O)[C@H](CO)NC(=O)[C@H](CCCNC(=N)N)N(C)C(=O)c2ccccc2CSC(C)(C)[C@@H](C(=O)N[C@@H](Cc2c[nH]c3ccccc23)C(=O)N[C@H](CCC(=O)O)C(=O)N[C@H](CO)C(=O)N[C@H](CCCCN)C(N)=O)NC1=O [compound 197] (HELM PEPTIDE1{[meR].S.D.T.L.[Pen].W.[dE].[dS].[dK].[am]}|CHEM1{[O=C(c1ccccc1C[*:2])[*:1]]}$PEPTIDE1,CHEM1,1:R1-1:R1|PEPTIDE1,CHEM1,6:R3-1:R2$$$V2.0)	< 25
